Test system: β-catenin-TCF-mediated reporter transcription activity in Colo 205 cells
Test: Colo 205 reporter assay (TCF/LEF luciferase)
Type: cell-based
Details: Homo sapiens, COLO 205, 5 h, Colo 205 TCF/LEF luciferase reporter, five hours after addition of compound; read-out: TCF reporter Colo205 IC50
Outline: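 Luciferase signal from a TCF/LEF-driven reporter, stably integrated in Colo 205 colon cancer cells, was measured 5 h after compound addition.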

IC50 [nM]	SMILES
< 300	COc1ncc(Cn2cc(CNc3nc(C)c4c(n3)N(C)[C@@H](C)C(=O)N4)cn2)cc1C(F)(F)F [Compound 215, (7S)-2-(((1-((6-methoxy-5-(trifluoromethyl)pyridin-3-yl)methyl)-1H-pyrazol-4-yl)methyl)amino)-4,7,8-trimethyl-7,8-dihydropteridin-6(5H)-one]
≥ 5000	Cc1nc(N[C@H](C)c2cnn(Cc3ccc(C(F)(F)F)nc3)c2)nc2c1NC(=O)[C@H](C)N2C [Compound 217, (7S)-4,7,8-Trimethyl-2-(((R)-1-(1-((6-(trifluoromethyl)pyridin-3-yl)methyl)-1H-pyrazol-4-yl)ethyl)amino)-7,8-dihydropteridin-6(5H)-one]
< 300	COc1nc(C(F)(F)F)ccc1Cn1cc(CNc2nc(C)c3c(n2)N(C)[C@@H](C)C(=O)N3)cn1 [Compound 218, (7S)-2-(((1-((2-methoxy-6-(trifluoromethyl)pyridin-3-yl)methyl)-1H-pyrazol-4-yl)methyl)amino)-4,7,8-trimethyl-7,8-dihydropteridin-6(5H)-one]
< 300	Cc1nc(NCc2cnn(C[C@@H]3CCCN3c3cc(F)cc(F)c3)c2)nc2c1NC(=O)[C@H](C)N2C [Compound 219, (7S)-2-(((1-(((S)-1-(3,5-difluorophenyl)pyrrolidin-2-yl)methyl)-1H-pyrazol-4-yl)methyl)amino)-4,7,8-trimethyl-7,8-dihydropteridin-6(5H)-one]
< 300	CCC[C@H]1C(=O)Nc2c(C)nc(NCc3cnn(Cc4ccc(C(F)(F)F)nc4)c3)nc2N1C [Compound 220, (7S)-4,8-dimethyl-7-propyl-2-(((1-((6-(trifluoromethyl)pyridin-3-yl)methyl)-1H-pyrazol-4-yl)methyl)amino)-7,8-dihydropteridin-6(5H)-one]
≥ 5000	CN1C(=O)C(C)(C)Nc2nc(NCc3cnn(Cc4ccc(F)cc4)c3)ncc21 [Compound 225, 2-(((1-(4-Fluorobenzyl)-1H-pyrazol-4-yl)methyl)amino)-5,7,7-trimethyl-7,8-dihydropteridin-6(5H)-one]
300 to 1000	CN1C(=O)C2(CC2)N(C)c2nc(NCc3cnn(Cc4ccc(F)cc4)c3)ncc21 [Compound 227, 2′-(((1-(4-fluorobenzyl)-1H-pyrazol-4-yl)methyl)amino)-5′,8′-dimethyl-5′,8′-dihydro-6′H-spiro[cyclopropane-1,7′-pteridin]-6′-one]
1000 to 5000	CN1C(=O)C2(COC2)N(C)c2nc(NCc3cnn(Cc4ccc(F)cc4)c3)ncc21 [Compound 228, 2′-(((1-(4-fluorobenzyl)-1H-pyrazol-4-yl)methyl)amino)-5′,8′-dimethyl-5′,8′-dihydro-6′H-spiro[oxetane-3,7′-pteridin]-6′-one]
300 to 1000	CCN1C(=O)C(C)(C)N(CC)c2nc(NCc3cnn(Cc4ccc(F)cc4)c3)ncc21 [Compound 230, 5,8-diethyl-2-(((1-(4-fluorobenzyl)-1H-pyrazol-4-yl)methyl)amino)-7,7-dimethyl-7,8-dihydropteridin-6(5H)-one]
< 300	CCN1C(=O)C(C)(C)N(CC)c2nc(NCc3cnn(Cc4cc(F)c(F)c(F)c4)c3)ncc21 [Compound 231, 5,8-diethyl-7,7-dimethyl-2-(((1-(3,4,5-trifluorobenzyl)-1H-pyrazol-4-yl)methyl)amino)-7,8-dihydropteridin-6(5H)-one]
< 300	CCN1C(=O)C2(CC2)N(CC)c2nc(NCc3cnn(Cc4ccc(F)cc4)c3)ncc21 [Compound 232, 5′,8′-diethyl-2′-(((1-(4-fluorobenzyl)-1H-pyrazol-4-yl)methyl)amino)-5′,8′-dihydro-6′H-spiro[cyclopropane-1,7′-pteridin]-6′-one]
< 300	CCN1C(=O)C2(CC2)N(CC)c2nc(NCc3cnn(Cc4cc(F)c(F)c(F)c4)c3)ncc21 [Compound 233, 5′,8′-diethyl-2′-(((1-(3,4,5-trifluorobenzyl)-1H-pyrazol-4-yl)methyl)amino)-5′,8′-dihydro-6′H-spiro[cyclopropane-1,7′-pteridin]-6′-one]
< 300	CN1C(=O)C(C)(C)N(C)c2nc(NCc3cnn(Cc4cnccc4C(F)(F)F)c3)ncc21 [Compound 236, 5,7,7,8-Tetramethyl-2-(((1-((4-(trifluoromethyl)pyridin-3-yl)methyl)-1H-pyrazol-4-yl)methyl)amino)-7,8-dihydropteridin-6(5H)-one]
< 300	Cc1nc(NCc2cnn(Cc3ccc(C(F)(F)F)nc3)c2)nc2c1NC(=O)C(C)(C)N2C [Compound 238, 4,7,7,8-Tetramethyl-2-(((1-((6-(trifluoromethyl)pyridin-3-yl)methyl)-1H-pyrazol-4-yl)methyl)amino)-7,8-dihydropteridin-6(5H)-one]
< 300	Cc1nc(NCc2cnn(Cc3ccc(C(F)(F)F)nc3)c2)nc2c1NC(=O)C1(CC1)N2C [Compound 239, 4′,8′-dimethyl-2′-(((1-((6-(trifluoromethyl)pyridin-3-yl)methyl)-1H-pyrazol-4-yl)methyl)amino)-5′,8′-dihydro-6′H-spiro[cyclopropane-1,7′-pteridin]-6′-one]
1000 to 5000	C[C@H]1C(=O)Nc2cnc(N[C@H]3C[C@H](Oc4ccc(F)cc4)C3)nc2N1C [Compound 240, (7S)-2-((trans-3-(4-fluorophenoxy)cyclobutyl)amino)-7,8-dimethyl-7,8-dihydropteridin-6(5H)-one]
≥ 5000	C[C@H]1C(=O)Nc2cnc(N[C@H]3C[C@@H](Oc4ccc(F)cc4)C3)nc2N1C [Compound 241, (7S)-2-((cis-3-(4-fluorophenoxy)cyclobutyl)amino)-7,8-dimethyl-7,8-dihydropteridin-6(5H)-one]
< 300	Cc1nc(N[C@H]2C[C@H](Oc3ccc(F)cc3)C2)nc2c1NC(=O)[C@H](C)N2C [Compound 242, (7S)-2-((trans 3-(4-fluorophenoxy)cyclobutyl)amino)-4,7,8-trimethyl-7,8-dihydropteridin-6(5H)-one]
1000 to 5000	Cc1nc(N[C@H]2C[C@@H](Oc3ccc(F)cc3)C2)nc2c1NC(=O)[C@H](C)N2C [Compound 243, (7S)-2-((cis-3-(4-fluorophenoxy)cyclobutyl)amino)-4,7,8-trimethyl-7,8-dihydropteridin-6(5H)-one]
≥ 5000	Cc1nc(NC2CN(Cc3ccccc3)C2)nc2c1NC(=O)[C@H](C)N2C [Compound 244, (7S)-2-((1-benzylazetidin-3-yl)amino)-4,7,8-trimethyl-7,8-dihydropteridin-6(5H)-one]
≥ 5000	C[C@H]1C(=O)Nc2cnc(NC3CN(Cc4ccccc4)C3)nc2N1C [Compound 245, (7S)-2-((1-benzylazetidin-3-yl)amino)-7,8-dimethyl-7,8-dihydropteridin-6(5H)-one]
< 300	Cc1nc(N[C@H]2C[C@H](Oc3ccc(F)c(F)c3)C2)nc2c1NC(=O)[C@H](C)N2C [Compound 248, (7S)-2-((trans 3-(3,4-difluorophenoxy)cyclobutyl)amino)-4,7,8-trimethyl-7,8-dihydropteridin-6(5H)-one]
< 300	C[C@H]1C(=O)Nc2cnc(N[C@H]3C[C@H](Oc4cc(F)c(F)c(F)c4)C3)nc2N1C [Compound 249, (7S)-7,8-dimethyl-2-((trans-3-(3,4,5-trifluorophenoxy)cyclobutyl)amino)-7,8-dihydropteridin-6(5H)-one]

Source: patent publication US20230312587A1, “PTERIDINONE COMPOUNDS AND USES THEREOF” (Vertex Pharmaceutical Incorporated, priority 2018, published 2023)
